logP and solubility data for nine molecules are collected here from the OPERA property sets (Mansouri et al. 2018).

Molecules are shown by their SMILES. In brackets after ≈: the same amount, converted by molar mass.

The conditions of this data set: for solubility: 25 °C.

For `COc1cccc(Cl)c1Cl`, the logP came to 3.24 and the solubility worked out at 491 µM (≈ 86.9 µg/mL). As for `COc1cccc(Cl)c1`, the solubility worked out at 1650 µM (≈ 235 µg/mL). This lies in the millimolar range.

The molecule `COc1cc(Cl)c(Cl)c(Cl)c1OC` had a logP of 4.01 and a solubility of 42.6 µM (≈ 10.3 µg/mL).

The molecule `COc1cc(Cl)c(Cl)cc1OC` displayed a logP of 3.11 and a solubility of 348 µM (≈ 72 µg/mL).

Take `COc1c(Cl)c(Cl)c(Cl)c(Cl)c1OC`: the logP stood at 4.86 and the solubility came out at 5.76 µM (≈ 1.59 µg/mL). In the same order, the values of `COc1c(Cl)cccc1Cl` are 3.14 and 791 µM (≈ 140 µg/mL). `COc1cc(Cl)c(Cl)c(Cl)c1Cl`: the solubility is 5.49 µM (≈ 1.35 µg/mL). Same read-out and setting: in the case of `COc1c(Cl)c(Cl)cc(Cl)c1Cl` it was 7.4 µM (≈ 1.82 µg/mL); in that of `COc1ccc(Cl)c(Cl)c1Cl`, 51.1 µM (≈ 10.8 µg/mL).
